Laboratory results taken from PubChem BioAssay AID488890 (Southern Research Specialized Biocontainment Screening …, 2010).
Results filed as inconclusive are left out. Activity calls are given as the source filed them. No rule for the calls is given here.

tested on: Mycobacterium tuberculosis non-replicating, growth inhibition; test: growth inhibition of non-replicating M. tuberculosis (AID 488890)

| SMILES | IC50 |
| --- | --- |
| O=C(N[C@@H]1C[C@H]2CC[C@@H]1C2)c1ccco1 | 15.1 µM (inactive) |
| O=C(O)c1ccccc1-c1ccccc1C(=O)Nc1nc2ccccc2s1 | 6.29 µM |
| Cc1onc(-c2ccccc2)c1C(=O)N/N=C/c1ccc([N+](=O)[O-])s1 | 8.09 µM |
| C=Cc1cccc(NC(=O)COc2ccccc2)c1 | 5.75 µM |
| COc1ccc(-c2nnc(NC(=O)C3=COCCO3)o2)cc1 | 27.1 µM (inactive) |
| c1ccc(-c2cccc(-c3ccccn3)n2)nc1 | 19.7 µM (inactive) |
| C/C(=N\NC(=O)c1ccc([N+](=O)[O-])c(C)c1)c1ccccc1Cl | 12.2 µM (inactive) |
| O=C(N/N=C\c1ccc(Cl)s1)C1COc2ccccc2O1 (stereo not drawn) | 0.97 µM |
| Cc1cccnc1NC(=O)c1c(O)c2ccccc2n(C)c1=O | 32 µM (inactive) |
| COc1cc(OC)cc(C(=O)Oc2c(CN3CCOCC3)cc(Cl)c3cccnc23)c1 | 7.87 µM |
| CC(C)(C)OC(=O)N/N=C\c1ccc([N+](=O)[O-])s1 | 13.6 µM (inactive) |
| COc1ccccc1NC(=O)c1ccc([N+](=O)[O-])o1 | 1.12 µM |
| Cc1ccn2c(NC3CCCC3)c(-c3ccccn3)nc2c1 | 12 µM (inactive) |
| COc1ccccc1OCC(=O)N/N=C/C=C/c1ccc([N+](=O)[O-])o1 | 2.78 µM |
| O=C1/C(=C/c2ccccn2)COc2ccccc21 | 15.8 µM (inactive) |
| CCOC(=O)c1ccc(N=CC2=C(O)CC(C)(C)CC2=O)cc1 | 3.85 µM |
| O=C(Nc1ccccn1)c1ccc([N+](=O)[O-])o1 | 0.77 µM |
| O=C(CCN1CCOCC1)c1ccc(Cl)cc1 | 7.01 µM |
| CN(C)CCCn1c(=O)n(C2CCCCC2)c(=O)c2c3c(sc21)CCCCC3 | 20.7 µM (inactive) |
| Cc1[nH]n(-c2cccc(Cl)c2)c(=O)c1/C=N/n1c(C)nc2ccccc2c1=O | 19.5 µM (inactive) |
| CC(C)(O)C#Cc1ccc(C(=O)Nc2ccc3c(c2)OCO3)s1 | 5.97 µM |
| COc1ccc(C(=O)C(CN2CCCC2)c2ccccc2)cc1 (stereo not drawn) | 5.58 µM |
| N#Cc1nc(-c2ccc(OCc3ccccc3)cc2)oc1NCCCn1ccnc1 | 15.4 µM (inactive) |

| SMILES | IC50 |
| --- | --- |
| CS(=O)(=O)c1sc(C#N)c2c1C(=O)CC(c1ccccc1)C2 (stereo not drawn) | 0.82 µM |
| CN(CC(=O)Nc1ccc(C#N)cc1)Cc1ccc(Cl)c(Cl)c1 | 12.9 µM (inactive) |
| O=C(OCc1nc2ccccc2s1)c1ccc(Br)o1 | 3.63 µM |
| O=C(Nc1sc2c(c1C(=O)O)CCCCC2)c1ccccc1F | 15.6 µM (inactive) |
| CC(C)c1ccc(OCC(=O)NNC(=O)c2cnccn2)cc1 | 11.9 µM (inactive) |
| CCSc1ncc(/C=N/Nc2ccc(Cl)cc2)n1C | 6.58 µM |
| Cc1cccnc1NC(=O)C1COc2ccccc2O1 (stereo not drawn) | 29.6 µM (inactive) |
| C/C(=N\NC(=O)C(C)Oc1ccc([N+](=O)[O-])cc1)c1ccccn1 (stereo not drawn) | 9.84 µM |
| COc1ccccc1N1CCN(C(=O)c2ccc([N+](=O)[O-])s2)CC1 | 5.97 µM |
| COC(=O)c1ccccc1Sc1ncnc2onc(C)c12 | 6.54 µM |
| O=C(Nc1cccnc1)c1ccc(-c2ccc(Cl)cc2)o1 | 5.13 µM |
| Cc1ccc(NC(=O)COCC(=O)Nc2ccc(C)cc2)cc1 | 14.6 µM (inactive) |
| CCCNC(=O)COC(=O)c1cc2c(=O)n3ccccc3nc2s1 | 23.6 µM (inactive) |
| CCCC(NCC(O)COc1ccc(-c2ccccc2)cc1)c1ccccc1 (stereo not drawn) | 10.7 µM (inactive) |
| CCC(=O)c1ccc(OCC(=O)OCC(=O)N2CCc3ccccc3C2)cc1 | 13 µM (inactive) |
| COc1ccc(CNC(=O)c2cc3cccc(O)c3oc2=N)cc1 | 14.3 µM (inactive) |
| CCc1ccc2c(c1)Sc1ccccc1CC2N1CCN(C)CC1 (stereo not drawn) | 13.6 µM (inactive) |
| CCCCOc1ccc(CSCCN)cc1Cl | 27.8 µM (inactive) |
| Cc1ccc(/C(O)=C/c2nc3ccccc3oc2=O)cc1 | 4.77 µM |
| COc1ccc(OCC(=O)Nc2ccc(N3CCN(C(=O)c4ccco4)CC3)cc2)cc1 | 20.8 µM (inactive) |
| Cc1ccc(NC(=O)COC(=O)C(NS(=O)(=O)c2ccc(Cl)cc2)C(C)O)cc1C (stereo not drawn) | 22.1 µM (inactive) |
| COc1ccccc1NC(=O)CCN1CCN(c2ccc(Cl)cc2)CC1 | 24.2 µM (inactive) |
| FC(F)(Cl)c1nnc2ccc(Cl)nn12 | 1.38 µM |

| SMILES | IC50 |
| --- | --- |
| COc1ccc(NC(=O)C(=O)NNC(=O)C(C)Oc2ccc(Cl)cc2Cl)cc1 (stereo not drawn) | 1.53 µM |
| Cc1ccc(-c2nnc(C)c(N3CCCC3)n2)cc1 | 8.94 µM |
| CCOC(=O)C1CCN(C(=O)COc2cc(C)c(Br)c(C)c2)CC1 | 18.3 µM (inactive) |
| Cc1nc(C)c(/C(O)=C/c2nc3ccccc3oc2=O)s1 | 1.07 µM |
| CCc1nnc(N/N=C/c2ccc(-c3ccc([N+](=O)[O-])cc3)o2)n1N | 7.59 µM |
| CCC1(O)CC(c2ccccc2)=NN1C(=O)c1ccccc1F (stereo not drawn) | 3.45 µM |
| O=C(Nc1nc(-c2ccccn2)cs1)c1ccc([N+](=O)[O-])o1 | 25.5 µM (inactive) |
| Cc1ccc(NC(=O)COC(=O)CCc2c[nH]c3ccccc23)cc1[N+](=O)[O-] | 4.83 µM |
| Cc1ccc2c(c1)c1c(n2CC(O)CNC2CCCCC2)CCCC1 (stereo not drawn) | 16.7 µM (inactive) |
| COc1cc(OC)c2c(OC)cccc2n1 | 6.63 µM |
| OCC1(CCOc2ccccc2)CCN(Cc2cc(Cl)ccc2O)CC1 | 24.1 µM (inactive) |
| COc1cc(CNCCO)cc(Cl)c1OCc1ccc(Cl)cc1Cl | 6.67 µM |
| Oc1ccccc1Nc1nc(NCC2CCCO2)c2ccccc2n1 (stereo not drawn) | 30.7 µM (inactive) |
| Cc1ccc(C(=O)n2c(N)nc3ccccc32)cc1 | 16.6 µM (inactive) |
| CCOC(=O)c1c(NC(=O)C2COc3ccccc3O2)sc2c1CC(C)(C)NC2(C)C (stereo not drawn) | 18.3 µM (inactive) |
| C=CCNc1nnc(Sc2ncccc2[N+](=O)[O-])s1 | 4.7 µM |
| O=C(COC(=O)CCc1c[nH]c2ccccc12)Nc1ccc([N+](=O)[O-])cc1 | 9.82 µM |
| N=c1oc2ccc(Cl)cc2cc1C(=O)NC1CCCCCC1 | 11.6 µM (inactive) |
| CCOc1ccc(-c2nnc(NC(=O)CCCOc3cccc(C)c3)o2)cc1 | 15 µM (inactive) |
| O=C(CCN1CCOCC1)c1ccc(Br)cc1 | 3.83 µM |
| COc1ccc(C(O)CNc2ccc(C)cc2)cc1 (stereo not drawn) | 43.2 µM (inactive) |
| CCn1cc(C(=O)NC(C)C23CC4CC(CC(C4)C2)C3)cn1 (stereo not drawn) | 2.73 µM |
| COc1cc(/C=C2/C(=O)NN(c3cccc(C)c3)C2=O)ccc1OC(=O)c1ccco1 | 5.53 µM |

| SMILES | IC50 |
| --- | --- |
| Cc1ccccc1OCC(O)Cn1c(=N)n(Cc2ccccc2)c2ccccc21 (stereo not drawn) | 7.63 µM |
| COc1cc(/C=N/N(C)C)ccc1OC(=O)c1cccs1 | 8.4 µM |
| Nc1scc(-c2ccncc2)c1Cl | 14 µM (inactive) |
| CCOC(=O)CNCCC(=O)c1ccc(Br)cc1 | 4.35 µM |
| COC(=O)c1ccc(Sc2nnnn2-c2ccccc2)c([N+](=O)[O-])c1 | 7.81 µM |
| O=C(OCc1ccc([N+](=O)[O-])cc1)c1cc2ccccc2oc1=O | 12.5 µM (inactive) |
| O=C1CC(N2CCC(c3nc4ccccc4o3)CC2)C(=O)N1 (stereo not drawn) | 16.3 µM (inactive) |
| COc1ccc(NC(=O)c2cc([N+](=O)[O-])ccc2O)cc1 | 7.71 µM |
| CCOCCOC(=O)c1ccc(NC(=O)C2COc3ccccc3O2)cc1 (stereo not drawn) | 4.16 µM |
| O=C(N/N=C/C=C/c1ccccc1[N+](=O)[O-])c1ccncc1 | 1.23 µM |
| CC(=O)Nc1nc2ccccc2n1Cc1ccc(C)cc1 | 3.21 µM |
| CC(C)COc1ccc(C(=O)CCN2CCCCC2)cc1 | 9.7 µM |
| O=C(O/N=C/c1ccc2c(c1)OCO2)c1ccc([N+](=O)[O-])cc1 | 11.6 µM (inactive) |
| O=C(COc1ccc([N+](=O)[O-])cc1)NNC(=O)c1cccs1 | 28.1 µM (inactive) |
| O=C(OCn1nnc2ccccc2c1=O)c1ccc(Br)o1 | 11.6 µM (inactive) |
| COC(=O)CN(C#N)c1nc(SC)nc(N(C)C)n1 | 15.9 µM (inactive) |
| O=C(NCC1CCN(c2ccc(S(=O)(=O)N3CCOCC3)cc2)CC1)c1ccc(Cl)cc1 | 24.1 µM (inactive) |
| S=C(Nc1ccc2c(c1)OCO2)Nc1ccc2c(c1)OCO2 | 12.8 µM (inactive) |
| NC(=O)C1CCN(C2CC(=O)NC2=O)CC1 (stereo not drawn) | 15.7 µM (inactive) |
| O=C(COc1ccc(Br)cc1)Nc1ccc([N+](=O)[O-])cn1 | 6.47 µM |
| O=C(c1ccc(Cl)cc1)N1N=C(c2ccccn2)CC1(O)C(F)(F)F (stereo not drawn) | 5.51 µM |
| O=C(COC(=O)CCC(=O)c1ccc(F)cc1)Nc1ccc(F)cc1F | 24.6 µM (inactive) |
| O=C(N/N=C\c1ccc([N+](=O)[O-])s1)c1cncc(Br)c1 | 2.02 µM |

| SMILES | IC50 |
| --- | --- |
| COc1ccc(NC(=O)CCCN2C(=O)/C(=C\c3ccco3)SC2=S)cc1 | 7.93 µM |
| CC(C)C[C@H]1CN=C(Nc2ccccc2)N1CCCC1CCCCC1 | 8.79 µM |
| CCc1ccc(/C=N/NC(=O)c2ccccn2)cc1 | 24.8 µM (inactive) |
| CC(C)CN(Cc1c(O)ccc2ccccc12)CC(C)C | 20.4 µM (inactive) |
| CC1=C/C(=N\OS(=O)(=O)c2ccccc2)C(C)=CC1=O | 0.66 µM |
| Cc1ccc(NC(=O)CN(C)CC(=O)Nc2ccc(F)c(Cl)c2)cc1 | 26.5 µM (inactive) |
| CCCn1nnnc1NC(=O)c1ccc2ccccc2c1 | 3.46 µM |
| Cc1cc(NCc2ccccn2)n2nc(C)c(-c3ccc(Cl)cc3)c2n1 | 1.85 µM |
| CCNC(=O)COC(=O)c1ccc(-c2nc3ccccc3s2)s1 | 5.7 µM |
| O=C(Nc1cccc(NC(=O)c2cccs2)c1)c1ccc([N+](=O)[O-])o1 | 5.43 µM |
| CCOc1ccc(C(=O)N/N=C/c2cccc3cccnc23)cc1 | 4.65 µM |
| CCCn1nnnc1NC(=O)COc1ccc(Br)cc1 | 4.62 µM |
| O=C(N/N=C\c1ccc([N+](=O)[O-])o1)C1COc2ccccc2O1 (stereo not drawn) | 2.27 µM |
| O=S(=O)(Nc1ccc(O)c2ccccc12)c1ccc(F)cc1 | 6.47 µM |
| CC(=O)N1CCC(=NNC(=O)c2cccs2)CC1 | 20.7 µM (inactive) |
| NC1CCN(c2c(F)cc3c(=O)c(C(=O)O)cn(C4CC4)c3c2Cl)C1 (stereo not drawn) | 0.15 µM |
| OC(COc1ccccc1Cl)CN1CCN(CC(O)COc2ccccc2Cl)CC1 (stereo not drawn) | 19 µM (inactive) |
| O=C(c1cc([N+](=O)[O-])cc([N+](=O)[O-])c1)N(Cc1nnc(-c2ccccc2Cl)o1)C1CC1 | 4.46 µM |
| COc1cc2ccccc2cc1C(=O)Nc1sc2c(c1C(N)=O)CCN(C(C)C)C2 | 19 µM (inactive) |
| Cn1nnnc1N=N/C(=N/Nc1ccccc1)c1ccccc1 | 6.47 µM |
| O=[N+]([O-])c1cncc([N+](=O)[O-])c1Nc1ccccc1Cl | 5.36 µM |
